Measured values published in ChEMBL document CHEMBL3632477 (2015).
Where a SMILES comes first, the peptide text is derived from it. Bridges are numbered along the chain shown (N, C = ends). [ ]: non-standard residue; d: D form. ξ: configuration not given here. Bip(2'-Et-4'-OMe) = CCc1cc(OC)ccc1-c1ccc(C[C@H](N)C(=O)O)cc1; αMePhe(2,6-F2) = C[C@](N)(Cc1c(F)cccc1F)C(=O)O; ξαMePhe(2,6-F2) = CC(N)(Cc1c(F)cccc1F)C(=O)O; Bip = N[C@@H](Cc1ccc(-c2ccccc2)cc1)C(=O)O; αMePhe(2-F) = C[C@](N)(Cc1ccccc1F)C(=O)O; hhPhe = N[C@@H](CCCc1ccccc1)C(=O)O; αMeF = C[C@](N)(Cc1ccccc1)C(=O)O; ξαMeF = CC(N)(Cc1ccccc1)C(=O)O; Pen = CC(C)(S)[C@H](N)C(=O)O; Aib = CC(C)(N)C(=O)O

The compounds below were run against Glucagon-like peptide 1 receptor (Homo sapiens, UniProt P43220) (assay: Agonist activity at human GLP-1R expressed in CHO-K1 cells assessed as increase in cAMP level incubated for 30 mins).
Format: functional, cell-based

Chain of Glucagon-like peptide 1 receptor (P43220 whole entry): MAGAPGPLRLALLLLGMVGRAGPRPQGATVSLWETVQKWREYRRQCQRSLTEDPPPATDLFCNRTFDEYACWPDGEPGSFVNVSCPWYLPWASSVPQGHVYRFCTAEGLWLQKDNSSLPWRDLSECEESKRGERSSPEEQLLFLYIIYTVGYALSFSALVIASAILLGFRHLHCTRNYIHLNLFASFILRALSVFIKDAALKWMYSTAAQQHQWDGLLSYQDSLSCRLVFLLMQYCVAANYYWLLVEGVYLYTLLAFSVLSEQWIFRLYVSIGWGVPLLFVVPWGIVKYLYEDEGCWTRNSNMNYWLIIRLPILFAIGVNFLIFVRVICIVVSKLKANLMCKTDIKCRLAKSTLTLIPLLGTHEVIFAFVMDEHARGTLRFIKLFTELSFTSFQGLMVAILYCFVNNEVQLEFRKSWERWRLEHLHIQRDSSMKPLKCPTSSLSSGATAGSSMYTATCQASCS

| SMILES | EC50 |
| --- | --- |
| CCc1cc(OC)ccc1-c1ccc(C[C@@H]2NC(=O)[C@H](CC(=O)O)NC(=O)[C@H](CO)NC(=O)[C@H]([C@@H](C)O)NC(=O)[C@](C)(Cc3c(F)cccc3F)NC(=O)[C@H]([C@@H](C)O)NC(=O)CNC(=O)[C@H](CCC(=O)O)NC(=O)[C@@H]3CCCN3C(=O)[C@H](Cc3cnc[nH]3)NC(=O)[C@H](CO)NC(=O)[C@@H]3CSSC[C@H](NC(=O)[C@H](CCCc4ccccc4)NC2=O)C(=O)NCC(=O)NCC(=O)N[C@@H](C)C(=O)N[C@@H](C)C(=O)NCC(=O)NCC(=O)NCC(=O)N[C@@H](C)C(=O)N3)cc1 (cyclo(AAGGGACSHPEGT[αMePhe(2,6-F2)]TSD[Bip(2'-Et-4'-OMe)][hhPhe]CGG); disulfide 7-20) | 0.43 µM |
| CCc1cc(OC)ccc1-c1ccc(C[C@@H]2NC(=O)[C@H](CC(=O)O)NC(=O)[C@H](CO)NC(=O)[C@H]([C@@H](C)O)NC(=O)[C@](C)(Cc3c(F)cccc3F)NC(=O)[C@H]([C@@H](C)O)NC(=O)CNC(=O)[C@H](CCC(=O)O)NC(=O)[C@@H]3CCCN3C(=O)[C@H](Cc3cnc[nH]3)NC(=O)[C@H](CO)NC(=O)[C@H](C(C)(C)S)NC(=O)[C@H](C)NC(=O)CNC(=O)CNC(=O)CNC(=O)[C@H](C)NC(=O)[C@H](C)NC(=O)CNC(=O)CNC(=O)[C@H](C(C)(C)S)NC(=O)[C@H](CCCc3ccccc3)NC2=O)cc1 (cyclo(AAGGGA[Pen]SHPEGT[αMePhe(2,6-F2)]TSD[Bip(2'-Et-4'-OMe)][hhPhe][Pen]GG)) | 2 µM |
| CCc1cc(OC)ccc1-c1ccc(C[C@@H]2NC(=O)[C@H](CC(=O)O)NC(=O)[C@H](CO)NC(=O)[C@H]([C@@H](C)O)NC(=O)[C@](C)(Cc3ccccc3)NC(=O)[C@H]([C@@H](C)O)NC(=O)CNC(=O)[C@H](CCC(=O)O)NC(=O)[C@@H]3CCCN3C(=O)[C@H](Cc3cnc[nH]3)NC(=O)[C@H](CO)NC(=O)[C@@H]3CSSC[C@H](NC(=O)[C@H](CCCc4ccccc4)NC2=O)C(=O)NCC(=O)NCC(=O)N[C@@H](CC(C)C)C(=O)N[C@@H](CC(C)C)C(=O)N[C@@H](CC(C)C)C(=O)NCC(=O)N[C@@H](CC(C)C)C(=O)N[C@@H](CC(C)C)C(=O)N3)cc1 (cyclo(CGGLLLGLLCSHPEGT[αMeF]TSD[Bip(2'-Et-4'-OMe)][hhPhe]); disulfide 1-10) | 2.8 µM |
| CCc1cc(OC)ccc1-c1ccc(C[C@@H]2NC(=O)[C@H](CC(=O)O)NC(=O)[C@H](CO)NC(=O)[C@H]([C@@H](C)O)NC(=O)[C@](C)(Cc3ccccc3F)NC(=O)[C@H]([C@@H](C)O)NC(=O)CNC(=O)[C@H](CCC(=O)O)NC(=O)[C@@H]3CCCN3C(=O)[C@H](Cc3cnc[nH]3)NC(=O)[C@H](CO)NC(=O)[C@@H]3CSSC[C@H](NC(=O)[C@H](CCCc4ccccc4)NC2=O)C(=O)NCC(=O)NCC(=O)N[C@@H](C)C(=O)N[C@@H](C)C(=O)NCC(=O)NCC(=O)NCC(=O)N[C@@H](C)C(=O)N3)cc1 (cyclo(AAGGGACSHPEGT[αMePhe(2-F)]TSD[Bip(2'-Et-4'-OMe)][hhPhe]CGG); disulfide 7-20) | 1 µM |
| CCc1cc(OC)ccc1-c1ccc(C[C@H](NC(=O)[C@H](CS)NC(=O)[C@H](CO)NC(=O)[C@@H](NC(=O)[C@](C)(Cc2ccccc2F)NC(=O)[C@H](CS)NC(=O)CNC(=O)[C@H](CCC(=O)O)NC(=O)C(C)(C)NC(=O)[C@@H](N)Cc2cnc[nH]2)[C@@H](C)O)C(=O)N[C@@H](CCCc2ccccc2)C(N)=O)cc1 (H-H[Aib]EGC[αMePhe(2-F)]TSC[Bip(2'-Et-4'-OMe)][hhPhe]-NH2) | 0.85 µM |
| CCc1cc(OC)ccc1-c1ccc(C[C@H](NC(=O)[C@H](CC(=O)O)NC(=O)[C@H](CO)NC(=O)[C@@H](NC(=O)[C@](C)(Cc2c(F)cccc2F)NC(=O)[C@@H](NC(=O)CNC(=O)[C@H](CCC(=O)O)NC(=O)[C@@H]2CCCN2C(=O)[C@@H](N)Cc2cnc[nH]2)[C@@H](C)O)[C@@H](C)O)C(=O)N[C@@H](CCCc2ccccc2)C(=O)N[C@H](C(=O)NCC(=O)NCC(=O)N[C@@H](C)C(=O)N[C@@H](C)C(=O)NCC(=O)NCC(=O)NCC(=O)N[C@@H](C)C(=O)N[C@H](C(=O)N[C@@H](CO)C(=O)O)C(C)(C)S)C(C)(C)S)cc1 (H-HPEGT[αMePhe(2,6-F2)]TSD[Bip(2'-Et-4'-OMe)][hhPhe][Pen]GGAAGGGA[Pen]S-OH) | 0.0025 µM |
| CCc1cc(OC)ccc1-c1ccc(C[C@@H]2NC(=O)[C@H](CC(=O)O)NC(=O)[C@H](CO)NC(=O)[C@@H]3CSSC[C@@H](C(=O)O)NC(=O)[C@H](CSSC[C@H](NC(=O)CNC(=O)[C@H](CCC(=O)O)NC(=O)C(C)(C)NC(=O)[C@@H](N)Cc4cnc[nH]4)C(=O)NC(C)(Cc4ccccc4)C(=O)N3)NC(=O)[C@H](CC(C)C)NC(=O)[C@H](CCCc3ccccc3)NC2=O)cc1 (stereo partly specified) (H-H[Aib]EGC[ξαMeF]CSD[Bip(2'-Et-4'-OMe)][hhPhe]LCC-OH; disulfide 5-13, 7-14) | 1.6 µM |
| CCc1cc(OC)ccc1-c1ccc(C[C@@H]2NC(=O)[C@H](CC(=O)O)NC(=O)[C@H](CO)NC(=O)[C@@H]3CSSC[C@@H](C(=O)O)NC(=O)[C@H](CSSC[C@H](NC(=O)CNC(=O)[C@H](CCC(=O)O)NC(=O)C(C)(C)NC(=O)[C@@H](N)Cc4cnc[nH]4)C(=O)N[C@@](C)(Cc4c(F)cccc4F)C(=O)N3)NC(=O)[C@H](Cc3ccc(-c4ccccc4)cc3)NC(=O)[C@H](CCCc3ccccc3)NC2=O)cc1 (H-H[Aib]EGC[αMePhe(2,6-F2)]CSD[Bip(2'-Et-4'-OMe)][hhPhe][Bip]CC-OH; disulfide 5-13, 7-14) | 7.5 µM |
| CCc1cc(OC)ccc1-c1ccc(C[C@@H]2NC(=O)[C@H](CC(=O)O)NC(=O)[C@H](CO)NC(=O)[C@@H]3CSSC[C@@H](C(=O)O)NC(=O)[C@H](CSSC[C@H](NC(=O)CNC(=O)[C@H](CCC(=O)O)NC(=O)C(C)(C)NC(=O)[C@@H](N)Cc4cnc[nH]4)C(=O)N[C@@H](Cc4ccccc4)C(=O)N3)NC(=O)[C@H](CC(C)C)NC(=O)[C@H](CCCc3ccccc3)NC2=O)cc1 (H-H[Aib]EGCFCSD[Bip(2'-Et-4'-OMe)][hhPhe]LCC-OH; disulfide 5-13, 7-14) | 16 µM |
| CCc1cc(OC)ccc1-c1ccc(C[C@H](NC(=O)[C@H](CC(=O)O)NC(=O)[C@H](CO)NC(=O)[C@@H](NC(=O)[C@](C)(Cc2ccccc2F)NC(=O)[C@H](CS)NC(=O)CNC(=O)[C@H](CCC(=O)O)NC(=O)C(C)(C)NC(=O)[C@@H](N)Cc2cnc[nH]2)[C@@H](C)O)C(=O)N[C@@H](CCCc2ccccc2)C(=O)N[C@H](CS)C(N)=O)cc1 | > 1 µM |
| CCc1cc(OC)ccc1-c1ccc(C[C@@H]2NC(=O)[C@H](CC(=O)O)NC(=O)[C@H](CO)NC(=O)[C@@H]3CSSC[C@@H](C(=O)O)NC(=O)[C@H](CSSC[C@H](NC(=O)CNC(=O)[C@H](CCC(=O)O)NC(=O)C(C)(C)NC(=O)[C@@H](N)Cc4cnc[nH]4)C(=O)NC(C)(Cc4c(F)cccc4F)C(=O)N3)NC(=O)[C@H](CC(C)C)NC(=O)[C@H](CCCc3ccccc3)NC2=O)cc1 (stereo partly specified) (H-H[Aib]EGC[ξαMePhe(2,6-F2)]CSD[Bip(2'-Et-4'-OMe)][hhPhe]LCC-OH; disulfide 5-13, 7-14) | 0.43 µM |
| CCc1cc(OC)ccc1-c1ccc(C[C@@H]2NC(=O)[C@H](CC(=O)O)NC(=O)[C@H](CO)NC(=O)[C@H]([C@@H](C)O)NC(=O)[C@](C)(Cc3c(F)cccc3F)NC(=O)[C@H]([C@@H](C)O)NC(=O)CNC(=O)[C@H](CCC(=O)O)NC(=O)C(C)(C)NC(=O)[C@H](Cc3cnc[nH]3)NC(=O)[C@H](CO)NC(=O)[C@@H]3CSSC[C@H](NC(=O)[C@H](CCCc4ccccc4)NC2=O)C(=O)NCC(=O)NCC(=O)N[C@@H](C)C(=O)N[C@@H](C)C(=O)NCC(=O)NCC(=O)NCC(=O)N[C@@H](C)C(=O)N3)cc1 (cyclo(AAGGGACSH[Aib]EGT[αMePhe(2,6-F2)]TSD[Bip(2'-Et-4'-OMe)][hhPhe]CGG); disulfide 7-20) | 1.4 µM |
| CCc1cc(OC)ccc1-c1ccc(C[C@@H]2NC(=O)[C@H](CC(=O)O)NC(=O)[C@H](CO)NC(=O)[C@H]([C@@H](C)O)NC(=O)[C@H](Cc3ccccc3)NC(=O)[C@H]([C@@H](C)O)NC(=O)CNC(=O)[C@H](CCC(=O)O)NC(=O)[C@@H]3CCCN3C(=O)[C@H](Cc3cnc[nH]3)NC(=O)[C@H](CO)NC(=O)[C@@H]3CSSC[C@H](NC(=O)[C@H](CCCc4ccccc4)NC2=O)C(=O)NCC(=O)NCC(=O)N[C@@H](C)C(=O)N[C@@H](C)C(=O)NCC(=O)NCC(=O)NCC(=O)N[C@@H](C)C(=O)N3)cc1 (cyclo(AAGGGACSHPEGTFTSD[Bip(2'-Et-4'-OMe)][hhPhe]CGG); disulfide 7-20) | 0.39 µM |
| CCc1cc(OC)ccc1-c1ccc(C[C@H](NC(=O)[C@H](CC(=O)O)NC(=O)[C@H](CO)NC(=O)[C@@H](NC(=O)[C@](C)(Cc2c(F)cccc2F)NC(=O)[C@@H](NC(=O)CNC(=O)[C@H](CCC(=O)O)NC(=O)[C@@H]2CCCN2C(=O)[C@@H](N)Cc2cnc[nH]2)[C@@H](C)O)[C@@H](C)O)C(=O)N[C@@H](CCCc2ccccc2)C(=O)N[C@H]2CSSC[C@@H](C(=O)N[C@@H](CO)C(=O)O)NC(=O)[C@H](C)NC(=O)CNC(=O)CNC(=O)CNC(=O)[C@H](C)NC(=O)[C@H](C)NC(=O)[C@H](Cc3ccc(-c4ccccc4)cc3)NC(=O)CNC2=O)cc1 (H-HPEGT[αMePhe(2,6-F2)]TSD[Bip(2'-Et-4'-OMe)][hhPhe]CG[Bip]AAGGGACS-OH; disulfide 12-21) | 0.0024 µM |
| CC(C)C[C@@H]1NC(=O)[C@H](Cc2ccccc2)NC(=O)[C@H](CC(N)=O)NC(=O)[C@H](CCCNC(=N)N)NC(=O)[C@H](CCCCN)NC(=O)[C@@H]2CSSC[C@@H](C(N)=O)NC(=O)[C@H](CSSC[C@H](NC(=O)[C@@H](N)CO)C(=O)N[C@@H](CO)C(=O)N2)NC1=O (H-SCSCKRNFLCC-NH2; disulfide 2-10, 4-11) | 0.00047 µM |
| CCc1cc(OC)ccc1-c1ccc(C[C@H](NC(=O)[C@H](CC(=O)O)NC(=O)[C@H](CO)NC(=O)[C@@H](NC(=O)[C@](C)(Cc2ccccc2)NC(=O)[C@@H](NC(=O)CNC(=O)[C@H](CCC(=O)O)NC(=O)[C@@H]2CCCN2C(=O)[C@@H](N)Cc2cnc[nH]2)[C@@H](C)O)[C@@H](C)O)C(=O)N[C@@H](CCCc2ccccc2)C(=O)N[C@H]2CSSC[C@@H](C(=O)N[C@@H](CO)C(=O)O)NC(=O)[C@H](CC(C)C)NC(=O)[C@H](CC(C)C)NC(=O)CNC(=O)[C@H](CC(C)C)NC(=O)[C@H](CC(C)C)NC(=O)[C@H](CC(C)C)NC(=O)CNC(=O)CNC2=O)cc1 (H-HPEGT[αMeF]TSD[Bip(2'-Et-4'-OMe)][hhPhe]CGGLLLGLLCS-OH; disulfide 12-21) | 0.13 µM |
